Test results reported in patent publication EP1994923A2, “Cosmetic and dermatological compositions for dry skin” (Henkel AG & Co. KGaA, priority 2007, dated 2008).

Test system: Aquaporine (AQ3)
Assay: Influence on aquaporin synthesis in a skin model (indirect immunohistology)
Assay type: cell-based
Conditions: skin model as in WO 03/053394 A2; 10 mg/ml test solution (extracts: 10 mg dry substance per ml); added systemically to the medium every two days; frozen after 6 days; cryosections
Method: An einem Hautmodell, wie in WO 03/053394 A2 beschrieben, wurde der Einfluss folgender Substanzen auf die Aquaporinsynthese überprüft: • 1.) Ergothionein (10 mg/ml Testlösung) • 2.) Wässriger Extrakt aus Laminaria digitata (mit einem hohen Anteil an Laminarin; verwendet wurde das Handelsprodukt Phycojuvenine in einer solchen Menge, dass die Testlösung eine Konzentration von 10 mg Extrakt-Trockensubstanz pro ml aufwies) • 3.) Wässriges Proteinhydrolysat von Hefeproteinen (verwendet wurde das Handelsprodukt Biodynes TRF Powder von Arch Chemicals Inc. in einer von 10 mg Extrakt-Trockensubstanz pro ml Testlösung)
Die Hautmodelle wurden nach Ankunft in frisches Medium gesetzt. Nach Vorinkubation über Nacht wurden sie alle zwei Tage mit den Testsubstanzen behandelt, indem der Wirkstoff systemisch in das Medium gegeben wurde. Die Kulturen wurden nach 6 Tagen für Cryoschnitte bei -80 °C eingefroren. Zum Zeitpunkt 0 wurden Kontrollproben eingefroren.
Zum Nachweis von Aquaporinen (AQ3) wurde die indirekte Immunhistologie angewendet. Hierbei bindet ein unkonjungierter Primärantikörper an das Antigen. Anschließend wird ein Sekundärantikörper eingesetzt, der gegen den Primärantikörper gerichtet ist.

In the case of `C[N+](C)(C)[C@@H](Cc1cnc(S)[nH]1)C(=O)[O-]` [Ergothionein, 2-Mercapto-N^αN^αN^α-trimethyl-L-histidinium-Betain], the “Aquaporinsynthese (Induktion der Aquaporine (AQ3))” value is reported as “stimulierten”.
